Here are results for 12 molecules from patent publication US11673889B2, “Substituted imidazo[4,5-c][1,8]naphthyridines as phosphodiesterase inhibitors” (Nanjing Zhengxiang Pharmaceuticals Co., Ltd., priority 2019, dated 2023).

Data set [1] in a line: Pharmacokinetics in mice. To be noted: mouse, plasma, male CD-1 mice, 1 mg/kg, iv; for Vd: read-out: Vdss. The format is in vivo. The procedure:
A dosing solution of test sample was prepared at 1.0 mg/mL in 5% DMSO/40% PEG400/55% water and administered to male CD-1 mice (4-6 weeks old, 20-30 grams, 3 animals each group) via intravenous (IV) bolus at 1 mg/kg and by oral gavage (PO) at 5 mg/kg. Blood samples (˜0.03 mL each time point) were collected via the jugular vein into tubes containing sodium heparin as the anticoagulant at 0.033, 0.083, 0.25, 0.5, 1, 2, 4, 8 and 24 hours post dose for IV administration and 0.083, 0.25, 0.5, 1, 2, 4, 8 and 24 hours post dose for PO administration. The blood samples were then centrifuged for 5 minutes in a centrifuge refrigerated at 4° C. The resultant plasma samples were analyzed using LC/MS/MS to determine concentrations of test sample. Non-compartmental model with WinNonlin (Phoenix™, version 8.0) software was used to calculate pharmacokinetic (PK) parameters.

The target in data set [2] is T1, human soluble ENPP1 (Homo sapiens, UniProt P22413).
T1 construct: 20 ng of human soluble ENPP1
T1 sequence (P22413 103-925 limits assumed): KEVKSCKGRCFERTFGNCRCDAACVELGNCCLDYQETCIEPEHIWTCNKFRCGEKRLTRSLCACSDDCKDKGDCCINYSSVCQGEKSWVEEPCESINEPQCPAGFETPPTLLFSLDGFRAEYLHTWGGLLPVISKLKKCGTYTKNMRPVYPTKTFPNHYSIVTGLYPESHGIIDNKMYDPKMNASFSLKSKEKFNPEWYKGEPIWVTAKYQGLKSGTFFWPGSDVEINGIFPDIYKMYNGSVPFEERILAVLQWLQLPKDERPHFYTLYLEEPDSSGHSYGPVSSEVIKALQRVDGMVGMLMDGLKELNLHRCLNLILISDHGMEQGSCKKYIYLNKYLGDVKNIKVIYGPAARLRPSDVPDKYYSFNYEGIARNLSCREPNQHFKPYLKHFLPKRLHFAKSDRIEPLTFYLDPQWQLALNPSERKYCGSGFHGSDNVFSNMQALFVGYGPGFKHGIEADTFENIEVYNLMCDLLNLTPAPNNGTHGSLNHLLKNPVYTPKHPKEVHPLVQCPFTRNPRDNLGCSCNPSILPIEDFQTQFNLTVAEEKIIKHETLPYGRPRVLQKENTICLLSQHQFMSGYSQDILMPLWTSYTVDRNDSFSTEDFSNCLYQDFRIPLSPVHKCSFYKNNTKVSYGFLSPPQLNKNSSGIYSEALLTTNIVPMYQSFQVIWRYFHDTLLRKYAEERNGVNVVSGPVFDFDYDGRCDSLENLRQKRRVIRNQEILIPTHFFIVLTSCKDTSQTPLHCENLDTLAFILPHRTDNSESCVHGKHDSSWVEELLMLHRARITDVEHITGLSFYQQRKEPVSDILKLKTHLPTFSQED
The data set can be described thus: ENPP1 activity assay using p-Nitrophenyl-5′-AMP as a substrate. The format is biochemical. The method, boiled down: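 Human soluble ENPP1 (35 ng) preincubated with inhibitor 30 min at RT, then p-nitrophenyl-5′-AMP added (3 mM solution, 2× final) and incubated 1 h at RT. p-Nitrophenolate release read at OD 405 nm; % inhibition vs no-inhibitor and blank controls, IC50 from four-parameter fit.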

The target in data set [3] is T1, human soluble ENPP1. The data set can be described thus: ENPP1 activity assay using p-Nitrophenyl-5′-TMP as a substrate. The format is biochemical. Summed up:
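Human soluble ENPP1 (20 ng) was preincubated with inhibitor for 30 min at room temperature. TMP-pNP was then added as a 2 mM […] solution and incubated 1 h at RT, with p-nitrophenol formation read by OD. IC50 came from four-parameter fits of % inhibition relative to no-inhibitor and blank controls.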

Data set [4] concerns the target T2, ENPP-1, MDA-MB-231 cells (Homo sapiens, UniProt P22413).
T2 sequence (P22413 1-925): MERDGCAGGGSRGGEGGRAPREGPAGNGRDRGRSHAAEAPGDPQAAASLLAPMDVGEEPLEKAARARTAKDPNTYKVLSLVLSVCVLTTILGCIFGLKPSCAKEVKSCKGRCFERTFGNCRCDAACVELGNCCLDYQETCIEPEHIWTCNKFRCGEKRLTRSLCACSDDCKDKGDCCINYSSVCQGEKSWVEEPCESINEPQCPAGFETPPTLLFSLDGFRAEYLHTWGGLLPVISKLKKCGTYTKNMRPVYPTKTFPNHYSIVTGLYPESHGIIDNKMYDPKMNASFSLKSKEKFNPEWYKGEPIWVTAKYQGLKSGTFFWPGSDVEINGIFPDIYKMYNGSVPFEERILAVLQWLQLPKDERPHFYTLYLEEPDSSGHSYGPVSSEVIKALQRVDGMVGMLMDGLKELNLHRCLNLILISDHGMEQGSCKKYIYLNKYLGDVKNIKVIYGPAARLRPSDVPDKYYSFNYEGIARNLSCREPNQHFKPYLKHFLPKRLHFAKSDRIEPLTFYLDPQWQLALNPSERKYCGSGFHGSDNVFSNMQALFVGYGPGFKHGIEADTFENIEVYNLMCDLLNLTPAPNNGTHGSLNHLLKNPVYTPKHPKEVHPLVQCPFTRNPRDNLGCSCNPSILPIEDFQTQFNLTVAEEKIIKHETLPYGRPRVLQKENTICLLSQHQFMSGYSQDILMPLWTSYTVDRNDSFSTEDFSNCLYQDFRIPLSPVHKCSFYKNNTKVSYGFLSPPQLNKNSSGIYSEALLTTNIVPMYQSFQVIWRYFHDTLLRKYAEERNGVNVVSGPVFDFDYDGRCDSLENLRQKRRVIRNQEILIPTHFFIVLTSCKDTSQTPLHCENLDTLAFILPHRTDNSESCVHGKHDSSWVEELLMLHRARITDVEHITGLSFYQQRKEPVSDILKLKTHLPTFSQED
The data set can be described thus: cell-based. Conditions: for inhibition at 20 µM: MDA-MB-231, read-out: % Inhibition (at 20 μM).

The mark [5] stands for this setting: substrate TMP-pNP, 20 ng human soluble ENPP1, Tris buffer pH 9.5, read-out: TMP-pNP (IC50).

Consider `COc1ccc2c(ncc3[nH]c(=O)n(Cc4ccc(S(N)(=O)=O)cc4)c32)n1` [Compound 38, 4-((7-methoxy-2-oxo-2,3-dihydro-1H-imidazo[4,5-c][1,8]naphthyridin-1-yl)methyl)benzenesulfonamide], for which, in data set [1], the AUC (usually the area under the concentration-time curve, a measure of exposure) worked out at 370 ng·h/mL; the clearance (in general, the rate of elimination divided by the concentration) was determined as 45 mL/min/kg; the half-life – broadly, how long it takes for the measured level to halve – is 1.9 h; the Vd stood at 3.3 L/kg. Besides, in data set [2], 0.75 nM corresponded to half-maximal inhibition (IC50). For the same molecule, it took 0.31 nM to reach half-maximal inhibition in data set [3] (IC50).
Take `COc1ccc2c(ncc3ncn(CC4CN(S(N)(=O)=O)C4)c32)n1` [Compound 52, 3-((7-methoxy-1H-imidazo[4,5-c][1,8]naphthyridin-1-yl)methyl)azetidine-1-sulfonamide]: in data set [4], the 50% inhibitory concentration (IC50) (as a rule, the midpoint of a concentration-inhibition curve) worked out at 1300 nM and the inhibition (usually the relative decrease from the control value, in per cent) at 20 µM amounted to 79%. Further, in data set [1], the area under the curve (AUC) came out at 179 ng·h/mL, the clearance was found to be 103 mL/min/kg, the half-life was 0.35 h and the Vd stood at 1.1 L/kg. In data set [2], inhibition was half-maximal at 2.2 nM (IC50). In data set [3], this molecule returned a half-maximal inhibitory concentration (IC50) of 0.54 nM.
Turning to `COc1ccc2c(ncc3ncn([C@H](C)c4ccc(S(N)(=O)=O)cn4)c32)n1` [Compound 60, (R)-6-(1-(7-methoxy-1H-imidazo[4,5-c][1,8]naphthyridin-1-yl)ethyl)pyridine-3-sulfonamide], in data set [4], half-maximal inhibition (IC50) was put at 490 nM and the inhibition at 20 µM was determined as 83%. In data set [1], the area under the curve (AUC) is 215 ng·h/mL, the clearance amounted to 78 mL/min/kg, the half-life was 2.5 h and the Vd came out at 11 L/kg. Also, the IC50 in data set [2] was 1.51 nM. This molecule also displayed a concentration for half-maximal inhibition (IC50) in data set [3] of 0.31 nM.
Turning to `COc1ccc2c(ncc3ncn(Cc4ccc(S(N)(=O)=O)c(F)c4)c32)n1` [Compound 61, 2-fluoro-4-((7-methoxy-1H-imidazo[4,5-c][1,8]naphthyridin-1-yl)methyl)benzenesulfonamide], in data set [4], the concentration for half-maximal inhibition (IC50) was determined as 780 nM and the inhibition at 20 µM was 80%. For the same molecule, in data set [1], the exposure (AUC) turned out to be 271 ng·h/mL, the clearance turned out to be 62 mL/min/kg, the half-life is 1.4 h and the Vd amounted to 4.5 L/kg. In data set [2], this molecule came in with an IC50 of 1.9 nM. For the same molecule, it took 0.53 nM to reach half-maximal inhibition in data set [3] (IC50).
Regarding `COc1ccc2c(ncc3ncn(Cc4ccc(S(N)(=O)=O)cc4F)c32)n1` [Compound 62, 3-fluoro-4-((7-methoxy-1H-imidazo[4,5-c][1,8]naphthyridin-1-yl)methyl)benzenesulfonamide], in data set [4], it took 45 nM to reach half-maximal inhibition (IC50) and the inhibition at 20 µM came to 89%. Moreover, in data set [1], the exposure (AUC) came out at 163 ng·h/mL, the clearance stood at 105 mL/min/kg, the half-life is 4.9 h and the Vd worked out at 39 L/kg. Moreover, in data set [2], the IC50 worked out at 1.5 nM. In data set [3], this molecule returned an IC50 of 0.1 nM.
Take `COc1ccc2c(ncc3ncn(Cc4ccc(S(N)(=O)=O)c(C(F)(F)F)c4)c32)n1` [Compound 65, 4-((7-methoxy-1H-imidazo[4,5-c][1,8]naphthyridin-1-yl)methyl)-2-(trifluoromethyl)benzenesulfonamide]: in data set [4], the midpoint of inhibition, the IC50, lay at 1600 nM and the inhibition at 20 µM is 75%. Further, in data set [1], the AUC was 185 ng·h/mL, the clearance is 92 mL/min/kg, the half-life is 0.72 h and the Vd turned out to be 3.1 L/kg. For the same molecule, 8.7 nM corresponded to half-maximal inhibition in data set [2] (IC50). Also, the IC50 in data set [3] was 3 nM.
With `COc1ccc2c(ncc3nc(C)n(Cc4cc(F)c(S(N)(=O)=O)cc4F)c32)n1` [Compound 70, 2,5-difluoro-4-((7-methoxy-2-methyl-1H-imidazo[4,5-c][1,8]naphthyridin-1-yl)methyl)benzenesulfonamide], in data set [4], half-maximal inhibition (IC50) required 290 nM and the inhibition at 20 µM was found to be 85%. In data set [1], the AUC worked out at 668 ng·h/mL, the clearance amounted to 26 mL/min/kg, the half-life was 2.6 h and the Vd is 4.3 L/kg. The IC50 in data set [2] was 1.2 nM. 0.64 nM corresponded to half-maximal inhibition in data set [3] (IC50).
Turning to `COc1ccc2c(ncc3nc(C)n(Cc4ccc(S(N)(=O)=O)c(F)c4)c32)n1` [Compound 71, 2-fluoro-4-((7-methoxy-2-methyl-1H-imidazo[4,5-c][1,8]naphthyridin-1-yl)methyl)benzenesulfonamide], in data set [4], 1100 nM corresponded to half-maximal inhibition (IC50) and the inhibition at 20 µM worked out at 76%. In data set [1], the exposure (AUC) was found to be 288 ng·h/mL, the clearance worked out at 60 mL/min/kg, the half-life is 0.74 h and the Vd came to 2.8 L/kg. For the same molecule, the IC50 in data set [2] is 2.9 nM. Moreover, the IC50 in data set [3] was 1 nM.
With `COc1ccc2c(ncc3c2n(Cc2c(F)cc(S(N)(=O)=O)cc2F)c(=O)n3CC(F)(F)F)n1` [Compound 131, 3,5-difluoro-4-((7-methoxy-2-oxo-3-(2,2,2-trifluoroethyl)-2,3-dihydro-1H-imidazo[4,5-c][1,8]naphthyridin-1-yl)methyl)benzenesulfonamide], the IC50 came out at 80 nM in data set [4], 0.19 nM in data set [2] and 0.04 nM in data set [3] (setting [5]). Moreover, in data set [4], the inhibition at 20 µM came to 88%.
In the case of `COCCn1c(=O)n(Cc2c(F)cc(S(N)(=O)=O)cc2F)c2c3ccc(OC)nc3ncc21` [Compound 132, 3,5-difluoro-4-((7-methoxy-3-(2-methoxyethyl)-2-oxo-2,3-dihydro-1H-imidazo[4,5-c][1,8]naphthyridin-1-yl)methyl)benzenesulfonamide], the inhibition at 20 µM in data set [4] was found to be 87%. Also, the half-maximal inhibitory concentration (IC50) in data set [2] worked out at 0.74 nM; in data set [3] (setting [5]) it was 0.33 nM.
Regarding `COc1ccc2c(ncc3cnn(Cc4ccc(S(N)(=O)=O)cn4)c32)n1` [Compound 135a, 6-((7-methoxy-1H-pyrazolo[4,3-c][1,8]naphthyridin-1-yl)methyl)pyridine-3-sulfonamide], the IC50 was 80 nM in data set [4], 1.4 nM in data set [2] and 0.66 nM in data set [3]. In data set [4], the inhibition at 20 µM was 88%.
Taken in the same sequence, the figures for `COc1ccc2c(n1)nc(C)c1nnn(Cc3ccc(S(N)(=O)=O)cn3)c12` [Compound 136, 6-((7-methoxy-4-methyl-1H-[1,2,3]triazolo[4,5-c][1,8]naphthyridin-1-yl)methyl)pyridine-3-sulfonamide] were 0.31 nM, 21 nM, 7.4 nM and 80%.
